These molecules were tested on denitrifying microorganisms (assay: AO wastewater treatment with promoter 1# plus additive (Example 2)). Details: additive (0.05-0.10 mg/L) added along with promoter 1#; process as example 1.
Method: Hereunder the present invention will be detailed in examples. In the following examples, the COD concentration is measured with the method specified in GB11914-89 “Water Quality—Determination of Chemical Oxygen Demand—Dichromate Method”; the ammonia nitrogen concentration is measured with the method specified in GB7478-87 “Water Quality—Determination of Ammonium—Distillation and Titration Method”; the concentration of nitrite nitrogen is measured with the method specified in GB7493-87 “Water Quality—Determination of Nitrite Nitrogen—Spectrophotometric Method”; the total nitrogen concentration is measured with the method specified in GB11894-89 “Water Quality—Determination of Total Nitrogen—UV Spectrophotometric Method—Alkaline Potassium Persulfate Digestion Method”.
The wastewater is treated according to the treatment process and operating condition described in example 1, but: an additive is added in a certain amount along with the promoter 1#.
Wherein the formic acid hydroxylamine is obtained by mixing a formic acid and a hydroxylamine at 1:1 molar ratio; the acetic acid hydroxylamine is obtained by mixing an acetic acid and a hydroxylamine at 1:1 molar ratio; both of them are […] after they are prepared.

| SMILES | COD in outputted water | NH3—N in outputted water | NO2^—N in outputted water | TN in outputted water |
| --- | --- | --- | --- | --- |
| O=S([O-])[O-].[Na+].[Na+] [Na2SO3] | 44.3 mg/L | 10.0 mg/L | 0.2 mg/L | 18.2 mg/L |
| NCCCCNCCCN [Spermidine] | 48.4 mg/L | 8.9 mg/L | 0.2 mg/L | 23.9 mg/L |
| NCCCNCCCCNCCCN [Spermine] | 47.9 mg/L | 9.3 mg/L | 0.1 mg/L | 21.3 mg/L |

From patent publication US11034932B2, “Composition capable of promoting the growth of denitrifying microorganisms and uses thereof” (CHINA PETROLEUM & CHEMICAL CORPORATION, priority 2016, dated 2021)
